Assay results: patent publication US10954214B2 (Janssen Pharmaceutica NV, priority 2016, dated 2021)

Tests used:
[1] = molecular target: full-length MALT1 protein (Strep-MALT1(1-824)-His) (Homo sapiens (Human), UniProt Q9UDY8); test: MALT1 Biochemical Protease Assay (Ac-LRSR-AMC substrate); conditions: 10 nM FL MALT1, 200 μM Ac-LRSR-AMC, 4 h at RT; read-out: MALT1_Biochemical activity (Ac-LRSR-amc) IC50
In short: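 Fluorescence from AMC release off the quenched LRSR substrate was read after a 4 h reaction at RT. Values were normalised to no-enzyme and uninhibited controls and fitted for IC50 and Hill coefficient.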

[2] = system: IL6 secretion by OCI-LY3 ABC-DLBCL cells; test: Human IL6 Mesoscale assay (OCI-LY3); format: cell-based; conditions: Homo sapiens, 24 h
Experimental: (§1) NFKB signaling regulates the secretion of multiple cytokines, including IL6 and IL10. Secretion of the cytokines IL6 and IL10 by TMD8 or OCI-LY3 ABC-DLBCL cells was measured using a mesoscale assay. Inhibition of NFKB signaling by MALT1 or BTK inhibitors results in a decrease of IL6/10 secretion.
(§2) TMD8 or OCI-LY3 cells were propagated in RPMI-1640 (Sigma Aldrich) supplemented with 10% fetal bovine serum (HyClone), 1 mM sodium pyruvate (Invitrogen), 2 mM L-glutamine (Sigma Aldrich) and 1% PenStrep (Sigma Aldrich). Cell passage number should not exceed 30. Cells should be kept between 0.5-2.5 million cells per mL during culturing and cells should be supplemented every 2-3 days with fresh 50 μM beta-mercaptoenthanol. No beta-mercaptoethanol was used during the mesoscale assay.
(§3) For the Mesoscale assay, 100,000 TMD8 or OCI-LY3 cells were seeded per well into black-colored 96-well plates with clear bottom (Corning #3904) and test compounds were added in 9 dilution steps (1:2) ranging from 15 μM to 58.6 nM (final DMSO concentration 0.3%). DMSO control wells were used to determine the maximum signal (High Control (HC)). Treatment with the BTK inhibitor RN486 in a dose range from 30 nM to 131 pM (9 dilutions of 1:2) served as a positive control for NFKB pathway inhibition and was used to determine the maximum inhibition (Low Control (LC)). Compounds and cells were incubated for 24 h at 37° C. and 5% CO2 (assay volume is 150 μL). After 24 h of incubation 50 μL of the supernatant was transferred to a MSD plate (V-Plex Proinflammation Panel 1 (human) kit, Mesoscale (MSD)) and incubated for 2 h with vigorous shaking (600 rpm) at room temperature. Following incubation, plates were washed 3× with PBS+0.05% Tween-20 and 25 μL detection antibody solution (IL6 & IL10 antibodies in diluent 3 (MSD)) was added per well followed by 2 h of incubation with vigorous shaking (600 rpm) at room temperature. After 3× washes with PBS+0.05% Tween-20, plates were incubated with 150 μL 2× Read Buffer T and read on SECTOR imager.

[3] = system: IL10 secretion by OCI-LY3 ABC-DLBCL cells; test: Human IL10 Mesoscale assay (OCI-LY3); format: cell-based; conditions: Homo sapiens, 24 h
Experimental: as §1, §2, §3

[4] = system: IL6 secretion by TMD8 ABC-DLBCL cells; test: Human IL6 Mesoscale assay (TMD-8); format: cell-based; conditions: Homo sapiens, TMD8; TMD-8 cells, 24 h
In short: (§4)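 Read-out: MSD electrochemiluminescence of IL6/IL10 in supernatants. Cells (100,000/well, no beta-mercaptoethanol) were exposed to compounds at 15 μM down to 58.6 nM, 1:2 dilutions, for 24 h at 37° C, 5% CO2. Normalised between DMSO (high) and RN486 (low) controls.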

[5] = system: IL10 secretion by TMD8 ABC-DLBCL cells; test: Human IL10 Mesoscale assay (TMD-8); format: cell-based; conditions: Homo sapiens, TMD8; TMD-8 cells, 24 h
In short: as §4

full-length MALT1 protein (Strep-MALT1(1-824)-His), sequence (Q9UDY8 whole entry): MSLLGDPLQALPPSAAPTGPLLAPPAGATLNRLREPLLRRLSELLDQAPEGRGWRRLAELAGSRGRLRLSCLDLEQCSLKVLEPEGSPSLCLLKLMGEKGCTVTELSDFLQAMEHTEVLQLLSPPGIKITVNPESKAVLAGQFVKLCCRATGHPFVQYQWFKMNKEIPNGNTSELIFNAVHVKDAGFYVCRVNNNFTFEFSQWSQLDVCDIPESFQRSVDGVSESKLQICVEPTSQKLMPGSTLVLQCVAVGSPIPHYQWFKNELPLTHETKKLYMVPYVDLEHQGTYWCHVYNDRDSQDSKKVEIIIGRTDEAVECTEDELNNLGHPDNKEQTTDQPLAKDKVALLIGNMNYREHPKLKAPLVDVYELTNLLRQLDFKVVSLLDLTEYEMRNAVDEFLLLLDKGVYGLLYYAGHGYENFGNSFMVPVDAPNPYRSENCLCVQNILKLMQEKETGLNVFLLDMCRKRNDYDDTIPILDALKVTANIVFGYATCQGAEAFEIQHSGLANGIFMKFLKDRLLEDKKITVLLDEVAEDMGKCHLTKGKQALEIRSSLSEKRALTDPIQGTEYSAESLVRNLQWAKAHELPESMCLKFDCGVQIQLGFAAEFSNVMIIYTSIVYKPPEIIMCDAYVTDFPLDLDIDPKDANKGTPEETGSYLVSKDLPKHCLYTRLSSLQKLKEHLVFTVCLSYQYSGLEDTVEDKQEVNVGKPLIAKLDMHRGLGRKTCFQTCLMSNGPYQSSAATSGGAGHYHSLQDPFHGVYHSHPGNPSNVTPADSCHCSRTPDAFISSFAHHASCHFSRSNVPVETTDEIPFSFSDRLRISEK

| SMILES | IC50 [1] [nM] | IC50 [2] [nM] | IC50 [3] [nM] | IC50 [4] [nM] | IC50 [5] [nM] |
| --- | --- | --- | --- | --- | --- |
| Cc1cn2c(-n3ncc(C(=O)Nc4cnc(-n5nccn5)c(Cl)c4)c3C(F)(F)F)cccc2n1 [Cpd 199, N-(5-chloro-6-(2H-1,2,3-triazol-2-yl)pyridin-3-yl)-1-(2-methylimidazo[1,2-a]pyridin-5-yl)-5-(trifluoromethyl)-1H-pyrazole-4-carboxamide] | 110 | 295 |  |  |  |
| O=C(Nc1cnc(-n2nc3cccnc3n2)c(Cl)c1)c1cnn(-c2cccc3ncccc23)c1C(F)(F)F [Cpd 164, N-(6-(2H-[1,2,3]triazolo[4,5-b]pyridin-2-yl)-5-chloropyridin-3-yl)-1-(quinolin-5-yl)-5-(trifluoromethyl)-1H-pyrazole-4-carboxamide] | 282 | 1660 |  |  |  |
| O=C(Nc1cnc(-n2nccn2)c(Cl)c1)c1cnn(-c2cnc(N3CC[C@@H](O)C3)c3sccc23)c1C(F)(F)F [Cpd 432, (R)—N-(5-chloro-6-(2H-1,2,3-triazol-2-yl)pyridin-3-yl)-1-(7-(3-hydroxypyrrolidin-1-yl)thieno[2,3-c]pyridin-4-yl)-5-(trifluoromethyl)-1H-pyrazole-4-carboxamide] | 98 |  |  | 933 | 363 |
| O=C(Nc1cnc(-n2nccn2)c(Cl)c1)c1cnn(-c2cnc(C3CNC3)c3ccccc23)c1C(F)(F)F [Cpd 403, 1-(1-(azetidin-3-yl)isoquinolin-4-yl)-N-(5-chloro-6-(2H-1,2,3-triazol-2-yl)pyridin-3-yl)-5-(trifluoromethyl)-1H-pyrazole-4-carboxamide] | 871 |  |  | 105 | 112 |
| O=C(Nc1cnc(-n2nccn2)c(Cl)c1)c1cnn(-c2cc(C(F)F)nc3ccccc23)c1C(F)(F)F [Cpd 401, N-(5-chloro-6-(2H-1,2,3-triazol-2-yl)pyridin-3-yl)-1-(2-(difluoromethyl)quinolin-4-yl)-5-(trifluoromethyl)-1H-pyrazole-4-carboxamide] | 56 |  |  | 331 | 132 |
| O=C(Nc1cnc(-n2nccn2)c(Cl)c1)c1cnn(-c2ccc(C(F)F)c3ncccc23)c1C(F)(F)F [Cpd 397, N-(5-chloro-6-(2H-1,2,3-triazol-2-yl)pyridin-3-yl)-1-(8-(difluoromethyl)quinolin-5-yl)-5-(trifluoromethyl)-1H-pyrazole-4-carboxamide] | 214 |  |  | 107 | 17 |
| Cc1cnc2cccc(-n3ncc(C(=O)Nc4cnc(-n5nccn5)c(Cl)c4)c3C(F)(F)F)n12 [Cpd 211, N-(5-chloro-6-(2H-1,2,3-triazol-2-yl)pyridin-3-yl)-1-(3-methylimidazo[1,2-a]pyridin-5-yl)-5-(trifluoromethyl)-1H-pyrazole-4-carboxamide] | 35 |  |  | 1660 | 2290 |
| CC(F)(F)c1ncc(-n2ncc(C(=O)Nc3cnc(-n4nccn4)c(Cl)c3)c2C(F)(F)F)c2ccccc12 [Cpd 402, N-(5-chloro-6-(2H-1,2,3-triazol-2-yl)pyridin-3-yl)-1-(1-(1,1-difluoroethyl)isoquinolin-4-yl)-5-(trifluoromethyl)-1H-pyrazole-4-carboxamide] | 178 |  |  | 200 | 85 |
| O=C(O)c1cnn(-c2ccc(NC(=O)c3cnn(-c4cccc5ncccc45)c3C(F)(F)F)cc2Cl)n1 [Cpd 228, 2-(2-chloro-4-(1-(quinolin-5-yl)-5-(trifluoromethyl)-1H-pyrazole-4-carboxamido)phenyl)-2H-1,2,3-triazole-4-carboxylic acid] | 1120 |  |  | 692 | 813 |
| Cn1ncc(-c2ncc(NC(=O)c3cnn(-c4cccc5ncccc45)c3C(F)(F)F)cc2C#N)n1 [Cpd 257, N-(5-cyano-6-(2-methyl-2H-1,2,3-triazol-4-yl)pyridin-3-yl)-1-(quinolin-5-yl)-5-(trifluoromethyl)-1H-pyrazole-4-carboxamide] | 234 |  |  | > 3200 | 646 |
| N#Cc1cc(NC(=O)c2cnn(-c3cccc4ncccc34)c2C(F)(F)F)cnc1-n1cccc1 [Cpd 280, N-(5-cyano-6-(1H-pyrrol-1-yl)pyridin-3-yl)-1-(quinolin-5-yl)-5-(trifluoromethyl)-1H-pyrazole-4-carboxamide] | 126 |  |  | 5500 | 2400 |
| Cc1cc(NC(=O)c2cnn(-c3cccc4ncccc34)c2C(F)(F)F)cnc1-c1nnnn1C [Cpd 240] | 631 |  |  | 398 | 135 |
| O=C(Nc1cnc(-c2ncco2)c(Cl)c1)c1cnn(-c2cccc3ncccc23)c1C(F)(F)F [Cpd 91, N-(5-chloro-6-(oxazol-2-yl)pyridin-3-yl)-1-(quinolin-5-yl)-5-(trifluoromethyl)-1H-pyrazole-4-carboxamide] | 15 |  |  | 151 | 155 |
| N#Cc1ccc2c(-n3ncc(C(=O)Nc4cnc(-n5nccn5)c(Cl)c4)c3C(F)(F)F)cccc2n1 [Cpd 413, N-(5-chloro-6-(2H-1,2,3-triazol-2-yl)pyridin-3-yl)-1-(2-cyanoquinolin-5-yl)-5-(trifluoromethyl)-1H-pyrazole-4-carboxamide] | 288 |  |  | > 1510 | 380 |

Next, values leading:

| IC50 [1] [nM] | IC50 [2] [nM] | IC50 [3] [nM] | IC50 [4] [nM] | IC50 [5] [nM] | SMILES |
| --- | --- | --- | --- | --- | --- |
| 91 | 132 | 123 |  |  | N#Cc1cc(NC(=O)c2cnn(-c3cnc(F)c4ccccc34)c2C(F)(F)F)cnc1-n1nccn1 [Cpd 289, N-(5-cyano-6-(2H-1,2,3-triazol-2-yl)pyridin-3-yl)-1-(1-fluoroisoquinolin-4-yl)-5-(trifluoromethyl)-1H-pyrazole-4-carboxamide] |
| 12300 |  |  | 1260 | 617 | O=C(Nc1ccnc(N2CCOCC2)c1)c1cnn(-c2cccc3c(=O)[nH]ccc23)c1C(F)(F)F [Cpd 361, N-(2-morpholinopyridin-4-yl)-1-(1-oxo-1,2-dihydroisoquinolin-5-yl)-5-(trifluoromethyl)-1H-pyrazole-4-carboxamide] |
| 126 |  |  | 3720 | 2750 | O=C(Nc1cnc(-n2nccn2)c(Cl)c1)c1cnn(-c2nsc3ncccc23)c1C(F)(F)F [Cpd 279, N-(5-chloro-6-(2H-1,2,3-triazol-2-yl)pyridin-3-yl)-1-(isothiazolo[5,4-b]pyridin-3-yl)-5-(trifluoromethyl)-1H-pyrazole-4-carboxamide] |
| 447 |  |  | 1260 | 617 | O=C(Nc1cnc(OC(F)F)c(Cl)c1)c1cnn(-c2cncc3ccccc23)c1C(F)(F)F [Cpd 106, N-(5-chloro-6-(difluoromethoxy)pyridin-3-yl)-1-(isoquinolin-4-yl)-5-(trifluoromethyl)-1H-pyrazole-4-carboxamide] |
| 661 |  |  | 1660 | 1440 | N#Cc1cc(NC(=O)c2cnn(-c3cc(N)nc4ccccc34)c2C(F)(F)F)cnc1-n1nccn1 [Cpd 329, 1-(2-aminoquinolin-4-yl)-N-(5-cyano-6-(2H-1,2,3-triazol-2-yl)pyridin-3-yl)-5-(trifluoromethyl)-1H-pyrazole-4-carboxamide] |
| 60 |  |  | 98 | 56 | O=C(Nc1cnc(-n2nccn2)c(Cl)c1)c1cnn(-c2cnc(C(F)F)c3sccc23)c1C(F)(F)F [Cpd 398, N-(5-chloro-6-(2H-1,2,3-triazol-2-yl)pyridin-3-yl)-1-(7-(difluoromethyl)thieno[2,3-c]pyridin-4-yl)-5-(trifluoromethyl)-1H-pyrazole-4-carboxamide] |
| 155 |  |  | 35 | 56 | COC(=O)c1cc(-c2ncc(NC(=O)c3cnn(-c4cccc5ncccc45)c3C(F)(F)F)cc2C#N)nn1C [Cpd 267, methyl 3-(3-cyano-5-(1-(quinolin-5-yl)-5-(trifluoromethyl)-1H-pyrazole-4-carboxamido)pyridin-2-yl)-1-methyl-1H-pyrazole-5-carboxylate] |
